Test results from patent US11691976B2, “Coelenterazine analogues” (PROMEGA CORPORATION, priority 2018, dated 2023).

Target: NANOLUC® Luciferase (Oplophorus gracilirostris, UniProt Q9GV45, A31E/A60N/A81I/F95D/I117V/K70R/L54V/L99Q/M102K/N193R/P142E/Q151K/Q38R/Q45L/V71I/Y165I)
Assay: Luminescence assay: substrate titration with purified NANOLUC Luciferase (RLU, signal half-life, Km)
Assay type: biochemical
Settings: 100 μM substrate; initial light output three minutes after substrate addition; relative to furimazine set to 1.0
Procedure: Each compound to be screened was dissolved in DMSO (5 mM) and then further diluted to 100 μM in NANO-GEO® Luciferase Assay Buffer. A two-fold dilution series was prepared for each substrate by serially diluting 500 μl of the substrate solution with 500 μl of NANO-GLO® Luciferase Assay Buffer. Each diluted substrate titration was then combined in equal volumes with purified NANOLUC® Luciferase diluted into CO2 independent media+10% FBS. Initial light output for each substrate was measured in a GLOMAX®-Multi+ luminometer three minutes after substrate addition and then at five minute intervals as a means to determine signal half-life. Signal half-life was calculated using GraphPad Prism One Phase Decay regression and Km and Vmax were calculated using GraphPad Prism using Michaelis-Menten regression.
The synthesized coelenterazine analogues (compounds of formula (I) and (II)) were evaluated for their suitability as luciferase substrates. NANOLUC® luciferase was employed for the screening because it is a small (19 kDa), stable, and particularly bright enzyme. […] RLU, half-life, and Km values are for furimazine is set to 1.0. […]

Sequence of NANOLUC® Luciferase (Q9GV45 28-196 with tags or gaps with the stated changes limits assumed): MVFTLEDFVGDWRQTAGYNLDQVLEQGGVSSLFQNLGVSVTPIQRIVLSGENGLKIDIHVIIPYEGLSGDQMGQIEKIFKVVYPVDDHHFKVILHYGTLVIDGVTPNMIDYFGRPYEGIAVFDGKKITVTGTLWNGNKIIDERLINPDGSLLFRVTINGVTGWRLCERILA

SMILES	RLU (@100 μM)
COCc1cccc(Cc2nc3c(Cc4ccccc4)[nH]c(-c4cccc(O[Si](C)(C)C(C)(C)C)c4)cn-3c2=O)c1 [JRW-0372, 8-benzyl-6-(3-((tert-butyldimethylsilyl)oxy)phenyl)-2-(3-(methoxymethyl)benzyl)imidazo[1,2-a]pyrazin-3(7H)-one]	0.00033
COCc1cccc(Cc2nc3c(Cc4ccccc4)[nH]c(-c4cccc(O)c4)cn-3c2=O)c1 [JRW-0373, 8-benzyl-6-(3-hydroxyphenyl)-2-(3-(methoxymethyl)benzyl)imidazo[1,2-a]pyrazin-3(7H)-one]	0.27
O=c1c(Cc2ccc3c(c2)OCO3)nc2c(Cc3ccccc3)[nH]c(-c3cccc(O)c3)cn1-2 [JRW-0777, 2-(benzo[d][1,3]dioxol-5-ylmethyl)-8-benzyl-6-(3-hydroxyphenyl)imidazo[1,2-a]pyrazin-3(7H)-one]	0.45
O=c1c(Cc2ccc(F)cc2)nc2c(Cc3ccccc3)[nH]c(-c3cccc(O)c3)cn1-2 [JRW-0786, 8-benzyl-2-(4-fluorobenzyl)-6-(3-hydroxyphenyl)imidazo[1,2-a]pyrazin-3(7H)-one]	0.88
O=c1c(Cc2ccccc2)nc2c(Cc3ccccc3)[nH]c(-c3cccc(O)c3)cn1-2 [JRW-1043, 2,8-dibenzyl-6-(3-hydroxyphenyl)imidazo[1,2-a]pyrazin-3(7H)-one]	0.8
COc1cccc(Cc2nc3c(Cc4ccccc4)[nH]c(-c4cccc(O)c4)cn-3c2=O)c1 [JRW-1047, 8-benzyl-6-(3-hydroxyphenyl)-2-(3-methoxybenzyl)imidazo[1,2-a]pyrazin-3(7H)-one]	0.5
COc1ccc(Cc2nc3c(Cc4ccccc4)[nH]c(-c4cccc(O)c4)cn-3c2=O)cc1 [JRW-1052, 8-benzyl-6-(3-hydroxyphenyl)-2-(4-methoxybenzyl)imidazo[1,2-a]pyrazin-3(7H)-one]	0.4
Cc1ccc(Cc2nc3c(Cc4ccccc4)[nH]c(-c4cccc(O)c4)cn-3c2=O)o1 [JRW-1056, 8-benzyl-6-(3-hydroxyphenyl)-2-((5-methylfuran-2-yl)methyl)imidazo[1,2-a]pyrazin-3(7H)-one]	1.1
Cc1cccc(Cc2[nH]c(-c3cccc(O)c3)cn3c(=O)c(Cc4ccco4)nc2-3)c1 [JRW-1368, 2-(furan-2-ylmethyl)-6-(3-hydroxyphenyl)-8-(3-methylbenzyl)imidazo[1,2-a]pyrazin-3(7H)-one]	0.032
Cc1cccc(Cc2[nH]c(-c3cccc(O)c3F)cn3c(=O)c(Cc4ccco4)nc2-3)c1 [JRW-1370, 6-(2-fluoro-3-hydroxyphenyl)-2-(furan-2-ylmethyl)-8-(3-methylbenzyl)imidazo[1,2-a]pyrazin-3(7H)-one]	0.036
O=c1c(Cc2ccco2)nc2c(Cc3ccccc3)[nH]c(-c3cccc(O)c3F)cn1-2 [JRW-1404, 8-benzyl-6-(2-fluoro-3-hydroxyphenyl)-2-(furan-2-ylmethyl)imidazo[1,2-a]pyrazin-3(7H)-one]	1.2
O=c1c(Cc2ccco2)nc2c(Cc3ccccc3)[nH]c(-c3cc(O)ccc3F)cn1-2 [JRW-1405, 8-benzyl-6-(2-fluoro-5-hydroxyphenyl)-2-(furan-2-ylmethyl)imidazo[1,2-a]pyrazin-3(7H)-one]	1.0
Nc1ccc(F)c(-c2cn3c(=O)c(Cc4ccco4)nc-3c(Cc3ccccc3)[nH]2)c1 [JRW-1411, 6-(5-amino-2-fluorophenyl)-8-benzyl-2-(furan-2-ylmethyl)imidazo[1,2-a]pyrazin-3(7H)-one]	0.001
O=c1c(Cc2ccco2)nc2c(Cc3ccccc3)[nH]c(-c3cccc([N+](=O)[O-])c3)cn1-2 [JRW-1424, 8-benzyl-2-(furan-2-ylmethyl)-6-(3-nitrophenyl)imidazo[1,2-a]pyrazin-3(7H)-one]	0.14
O=c1c(Cc2ccco2)nc2c(Cc3ccccc3)[nH]c(-c3cc(O)cc(Cl)c3)cn1-2 [JRW-1479, 8-benzyl-6-(3-chloro-5-hydroxyphenyl)-2-(furan-2-ylmethyl)imidazo[1,2-a]pyrazin-3(7H)-one]	0.43
Nc1cccc(-c2cn3c(=O)c(Cc4ccco4)nc-3c(Cc3ccccc3)[nH]2)c1F [JRW-1482, 6-(3-amino-2-fluorophenyl)-8-benzyl-2-(furan-2-ylmethyl)imidazo[1,2-a]pyrazin-3(7H)-one]	1.7

SMILES	RLU (@100 μM)
O=c1c(Cc2ccco2)nc2c(Cc3ccccc3)[nH]c(-c3ccc(Cl)c(O)c3)cn1-2 [JRW-1483, 8-benzyl-6-(4-chloro-3-hydroxyphenyl)-2-(furan-2-ylmethyl)imidazo[1,2-a]pyrazin-3(7H)-one]	0.008
O=c1c(Cc2ccco2)nc2c(Cc3ccccc3)[nH]c(-c3cccc(O)c3Cl)cn1-2 [JRW-1488, 8-benzyl-6-(2-chloro-3-hydroxyphenyl)-2-(furan-2-ylmethyl)imidazo[1,2-a]pyrazin-3(7H)-one]	0.31
O=c1c(Cc2ccco2)nc2c(Cc3ccc(F)cc3)[nH]c(-c3cccc(O)c3)cn1-2 [JRW-1498, 8-(4-fluorobenzyl)-2-(furan-2-ylmethyl)-6-(3-hydroxyphenyl)imidazo[1,2-a]pyrazin-3(7H)-one]	0.049
O=c1c(Cc2ccco2)nc2c(Cc3ccccc3)[nH]c(-c3cc(O)ccc3Cl)cn1-2 [JRW-1525, 8-benzyl-6-(2-chloro-5-hydroxyphenyl)-2-(furan-2-ylmethyl)imidazo[1,2-a]pyrazin-3(7H)-one]	0.4
O=c1c(Cc2ccco2)nc2c(Cc3ccccc3)[nH]c(-c3cc(O)cc(F)c3)cn1-2 [JRW-1526, 8-benzyl-6-(3-fluoro-5-hydroxyphenyl)-2-(furan-2-ylmethyl)imidazo[1,2-a]pyrazin-3(7H)-one]	1.0
Nc1cc(F)cc(-c2cn3c(=O)c(Cc4ccco4)nc-3c(Cc3ccccc3)[nH]2)c1 [JRW-1535, 6-(3-amino-5-fluorophenyl)-8-benzyl-2-(furan-2-ylmethyl)imidazo[1,2-a]pyrazin-3(7H)-one]	0.73
Nc1cc(-c2cn3c(=O)c(Cc4ccco4)nc-3c(Cc3ccccc3)[nH]2)ccc1F [JRW-1536, 6-(3-amino-4-fluorophenyl)-8-benzyl-2-(furan-2-ylmethyl)imidazo[1,2-a]pyrazin-3(7H)-one]	0.08
Nc1cccc(-c2cn3c(=O)c(Cc4ccc(C(F)(F)F)o4)nc-3c(Cc3ccccc3)[nH]2)c1F [JRW-1610, 6-(3-amino-2-fluorophenyl)-8-benzyl-2-((5-(trifluoromethyl)furan-2-yl)methyl)imidazo[1,2-a]pyrazin-3(7H)-one]	0.71
O=c1c(Cc2ccc(C(F)(F)F)o2)nc2c(Cc3ccccc3)[nH]c(-c3cccc(O)c3F)cn1-2 [JRW-1619, 8-benzyl-6-(2-fluoro-3-hydroxyphenyl)-2-((5-(trifluoromethyl)furan-2-yl)methyl)imidazo[1,2-a]pyrazin-3(7H)-one]	0.85
O=c1c(Cc2cccs2)nc2c(Cc3ccccc3)[nH]c(-c3cccc(O)c3F)cn1-2 [JRW-1624, 8-benzyl-6-(2-fluoro-3-hydroxyphenyl)-2-(thiophen-2-ylmethyl)imidazo[1,2-a]pyrazin-3(7H)-one]	0.84
Nc1cccc(-c2cn3c(=O)c(Cc4ccc(F)cc4)nc-3c(Cc3ccccc3)[nH]2)c1F [JRW-1635, 6-(3-amino-2-fluorophenyl)-8-benzyl-2-(4-fluorobenzyl)imidazo[1,2-a]pyrazin-3(7H)-one]	1.0
Cc1c(N)cccc1-c1cn2c(=O)c(Cc3ccco3)nc-2c(Cc2ccccc2)[nH]1 [JRW-1642, 6-(3-amino-2-methylphenyl)-8-benzyl-2-(furan-2-ylmethyl)imidazo[1,2-a]pyrazin-3(7H)-one]	0.04
Cc1c(O)cccc1-c1cn2c(=O)c(Cc3ccco3)nc-2c(Cc2ccccc2)[nH]1 [JRW-1645, 8-benzyl-2-(furan-2-ylmethyl)-6-(3-hydroxy-2-methylphenyl)imidazo[1,2-a]pyrazin-3(7H)-one]	0.07
Nc1cccc(-c2cn3c(=O)c(Cc4ccco4)nc-3c(Cc3ccccc3F)[nH]2)c1F [JRW-1667, 6-(3-amino-2-fluorophenyl)-8-(2-fluorobenzyl)-2-(furan-2-ylmethyl)imidazo[1,2-a]pyrazin-3(7H)-one]	2.1
O=c1c(Cc2ccco2)nc2c(Cc3ccccc3F)[nH]c(-c3cccc(O)c3F)cn1-2 [JRW-1668, 6-(2-fluoro-3-hydroxyphenyl)-8-(2-fluorobenzyl)-2-(furan-2-ylmethyl)imidazo[1,2-a]pyrazin-3(7H)-one]	1.5
Nc1cccc(-c2cn3c(=O)c(Cc4ccco4)nc-3c(Cc3c(F)cccc3F)[nH]2)c1F [JRW-1747, 6-(3-amino-2-fluorophenyl)-8-(2,6-difluorobenzyl)-2-(furan-2-ylmethyl)imidazo[1,2-a]pyrazin-3(7H)-one]	2.1
